Experimental findings from ChEMBL document CHEMBL1201862, “PubChem BioAssay data set” (2004) are described below.

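Results reflect a 48-hour exposure of cells in 96-well plates to compound at five concentrations. At the GI50, growth is halved.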 Calls of active or inactive are those of the source. Rule as the data show it: active = GI50 up to about 1.1 µM and inactive = higher.

Common to all, as to test: NCI-60 cell line screen, 48 h
Assay [1] concerns CAKI-1.
Assay [2] has as its system COLO 205.
The subject of assay [3] is EKVX.
The subject of assay [4] is HCT-116.
Assay [5] relates to HT-29.
The subject of assay [6] is IGROV-1.
Assay [7] relates to KM12.
The test system of assay [8] is NCI-H23.
In assay [9] the test system is NCI-H522.
The subject of assay [10] is SF-295.
Assay [11] relates to SR.
Assay [12] relates to SW-620.
The subject of assay [13] is TK-10.
Assay [14] has as its system UACC-257.
For assay [15], the system named is UO-31.
Assay [16] deals with MOLT-4.

Regarding `COc1ccc(OC)c(/C=N/N=C(\N)NO)c1`, the GI50 in assay [1] is 8.04 µM (inactive); in assay [2], 10.6 µM (inactive); in [3], 13.3 µM (inactive); in assay [4], 24.5 µM (inactive); in assay [5], 36.6 µM (inactive); in assay [6] it was 29.6 µM (inactive). The GI50 was 22.4 µM (inactive) in assay [7]; 27 µM (inactive) in assay [8]; 14.3 µM (inactive) in [9]; 21.9 µM (inactive) in assay [10]; 45.2 µM (inactive) in assay [11]; 24.3 µM (inactive) in assay [12]. Moreover, the GI50 in assay [13] is 19.4 µM (inactive); in assay [14], 30.5 µM (inactive); in [15], 14.2 µM (inactive).

For `CC(C)(C)c1ccc(OCCOCCOc2ccc(C(C)(C)C)cc2S(=O)(=O)Nc2ccc([N+](=O)[O-])cc2)c(S(=O)(=O)Nc2ccc([N+](=O)[O-])cc2)c1`, the GI50 is 9.31 µM (inactive) in [1]; 21.8 µM (inactive) in [2]; 62.5 µM (inactive) in assay [3]; 4.86 µM (inactive) in assay [4]; 7.38 µM (inactive) in [5]; 12.7 µM (inactive) in [6]. In addition, the GI50 in assay [7] was 7.53 µM (inactive); in assay [16], 3.01 µM (inactive); in assay [8] it was 12.7 µM (inactive); in assay [10] it was 8.47 µM (inactive); in [12] it was 61.8 µM (inactive); in assay [13] it was 5.64 µM (inactive). In addition, the GI50 is 42.1 µM (inactive) in assay [14] and 4.45 µM (inactive) in [15].

For `COc1ccccc1/C=C(\NC(=O)c1ccccc1)c1nc2ccccc2[nH]1`, the GI50 in assay [1] was 87.3 µM (inactive); in [2], 28.8 µM (inactive); in [3], 34.7 µM (inactive); in assay [4], 34 µM (inactive); in assay [5] it was 44.1 µM (inactive); in [6], 32.8 µM (inactive). Also, the GI50 in [7] is 32.6 µM (inactive); in [16], 36.7 µM (inactive); in assay [8], 33.2 µM (inactive); in assay [9], 30.3 µM (inactive); in [12], 47 µM (inactive); in assay [13] it was 39 µM (inactive). The GI50 in [14] was 31 µM (inactive); in [15], 63.8 µM (inactive).

With `CC(Oc1ccc(OCC2CCCCC2)cc1)C(=O)O` (stereo unspecified), the GI50 in [4], in assay [5], in assay [6], in [7], in assay [16] and in assay [8] was > 100 µM (inactive) in each case. The GI50 in assay [9], in [10], in [12], in assay [13], in assay [14] and in assay [15] was > 100 µM (inactive) throughout.

With `Cc1cc(C)nc(NS(=O)(=O)c2ccc(Nc3c4ccccc4nc4c(C(=O)Nc5ccc(S(N)(=O)=O)cc5)cccc34)cc2)n1`, the GI50 in assay [1] was > 100 µM (inactive); in [2] it was > 100 µM (inactive); in assay [3], 35.1 µM (inactive); in [4] it was 83.8 µM (inactive); in [5], > 100 µM (inactive); in [6], > 100 µM (inactive). The GI50 is 63.7 µM (inactive) in [7]; > 100 µM (inactive) in assay [16]; 68.5 µM (inactive) in [8]; 30.8 µM (inactive) in assay [9]; > 100 µM (inactive) in assay [10]; > 100 µM (inactive) in assay [12]. Besides, the GI50 is > 10 µM (inactive) in [13], > 100 µM (inactive) in [14] and 37 µM (inactive) in assay [15].

Regarding `C[C@H]1C=C2C(=O)O[C@H]3CC[C@@H](C1)[C@@]23O`, the GI50 in assay [1] is 3.72 µM (inactive); in assay [2], 3.26 µM (inactive); in assay [3], 2.67 µM (inactive); in assay [4], 2.75 µM (inactive); in assay [5], 3.97 µM (inactive); in assay [6], 6.03 µM (inactive). In addition, the GI50 in [7] was 2.92 µM (inactive); in [16] it was 1.21 µM (inactive); in [8], 2.8 µM (inactive); in assay [9], 2.51 µM (inactive); in [10], 4.4 µM (inactive); in assay [11], 0.233 µM (active). Also, the GI50 in assay [12] was 3.28 µM (inactive); in assay [13], 4.68 µM (inactive); in assay [14] it was 10.3 µM (inactive); in [15] it was 18.2 µM (inactive).

Take `O=C(Nc1nc2ncn(CCI)c2c(=O)[nH]1)c1ccccc1`: the GI50 was > 100 µM (inactive) in assay [1]; > 100 µM (inactive) in assay [2]; > 80.4 µM (inactive) in [3]; > 100 µM (inactive) in assay [4]; > 100 µM (inactive) in assay [5]; > 100 µM (inactive) in assay [6]. The GI50 is > 100 µM (inactive) in assay [7]; > 100 µM (inactive) in assay [16]; > 100 µM (inactive) in [8]; 28.3 µM (inactive) in assay [9]; 34 µM (inactive) in assay [10]; > 100 µM (inactive) in [11]. Also, the GI50 in assay [12] was > 100 µM (inactive); in assay [13], 31.3 µM (inactive); in assay [14], > 100 µM (inactive); in assay [15], > 90.4 µM (inactive).

Turning to `CC(=O)OC1CCC2C(=CCC3C2(C)C(=O)CC2(C)C(C4(C)OC(C(C)C)=CC4=O)C(O)CC32C)C1(C)C` (stereo unspecified), the GI50 in assay [1] was 45 µM (inactive); in assay [2] it was 56 µM (inactive); in assay [3], 57.3 µM (inactive); in assay [4], > 10 µM (inactive); in assay [5], 17.8 µM (inactive); in [6], 62.4 µM (inactive). Further, the GI50 was > 10 µM (inactive) in [7]; 32.4 µM (inactive) in assay [16]; 63.2 µM (inactive) in assay [8]; 35.5 µM (inactive) in assay [9]; 28.4 µM (inactive) in assay [11]; 41 µM (inactive) in [12]. For the same compound, in [15], the GI50 is 40.3 µM (inactive).

As for `COc1cc(/C=C/c2ccncc2)cc(OC)c1OC`, the GI50 in assay [1] was 49 µM (inactive); in assay [2], > 100 µM (inactive); in assay [3] it was 13.1 µM (inactive); in assay [4] it was > 100 µM (inactive); in [5] it was 64.3 µM (inactive); in [6], 74.6 µM (inactive). For the same compound, the GI50 is > 100 µM (inactive) in [7]; 65.8 µM (inactive) in assay [16]; > 100 µM (inactive) in assay [8]; 32.3 µM (inactive) in [9]; > 100 µM (inactive) in [10]; > 100 µM (inactive) in assay [12]. In addition, the GI50 in assay [13] was 41 µM (inactive); in assay [14] it was > 100 µM (inactive); in assay [15] it was 24.4 µM (inactive).

`Cc1ccc(Sc2ccccc2N)cc1`: the GI50 in assay [1] is 21.6 µM (inactive); in assay [2], 40 µM (inactive); in assay [3] it was 54.6 µM (inactive); in [4], 35.6 µM (inactive); in assay [5], 31.1 µM (inactive); in assay [6], 37.7 µM (inactive). The GI50 in assay [7] was 25.5 µM (inactive); in assay [16] it was 18.4 µM (inactive); in assay [8] it was 26.7 µM (inactive); in [9], 14.8 µM (inactive); in [10], 78.2 µM (inactive); in [12], 49 µM (inactive). The GI50 in assay [13] is 70.5 µM (inactive); in assay [14], 33.4 µM (inactive); in assay [15] it was 12.8 µM (inactive).

On to `CC(O)C(NC(=O)c1ccccc1)C(=O)N(Cc1ccccc1)Cc1ccccc1` (stereo unspecified), for which the GI50 in assay [1] was 18.2 µM (inactive); in assay [2], > 100 µM (inactive); in [3], > 100 µM (inactive); in assay [5], > 10 µM (inactive); in assay [6], > 100 µM (inactive); in assay [7] it was > 100 µM (inactive). In addition, the GI50 is 61.4 µM (inactive) in assay [16]; > 100 µM (inactive) in assay [8]; 7.03 µM (inactive) in assay [9]; 94.4 µM (inactive) in [10]; > 100 µM (inactive) in assay [12]; > 100 µM (inactive) in [13]. The GI50 in assay [14] is 80.4 µM (inactive); in assay [15], > 100 µM (inactive).

With `CCc1cccc(C(C)C)c1NC(=O)CCl`, the GI50 in [1], in assay [3], in assay [4], in assay [5], in assay [6] and in assay [7] was > 100 µM (inactive) throughout. For the same compound, the GI50 in assay [16] is > 100 µM (inactive); in [8] it was > 100 µM (inactive); in assay [9], 35.6 µM (inactive); in assay [10], > 100 µM (inactive); in assay [11], 71.4 µM (inactive); in assay [12] it was > 100 µM (inactive). Moreover, the GI50 in [13], in assay [14] and in assay [15] was > 100 µM (inactive) throughout.

On to `CCOC(=O)NC/C=C/CO`, for which the GI50 in [1], in [2], in assay [4], in assay [6], in [7] and in [16] was > 100 µM (inactive) in each case. For the same compound, the GI50 in assay [9], in [11], in assay [12], in assay [13], in [14] and in assay [15] was > 100 µM (inactive) in each case.

`Cc1ccc(-n2cc(/C(N)=N/O)c3ccccc3c2=O)cc1`: the GI50 in [2], in assay [3], in assay [4], in assay [5], in assay [6] and in assay [7] was > 100 µM (inactive) in each case. Also, the GI50 in assay [16], in [8], in [9], in [10], in assay [11] and in assay [12] was > 100 µM (inactive) each time. Moreover, the GI50 in [13], in [14] and in assay [15] was > 100 µM (inactive) each time.
